Laboratory results reported in patent publication US20060153913A1, “Solid formulation with improved solubility and stability, and method for producing said formulation” (priority 2004, published 2006).

Assays:
Assay type in all cases: physicochemical
[1] = Dissolution test, second method of Japanese Pharmacopoeia (paddle method); conditions: after 60 minutes; paddle method 50 rpm, 0.1 w/v % sodium lauryl sulfate solution 900 mL, 37° C.
Description: Dissolution test was performed following the second method of Japanese Pharmacopoeia dissolution test method (paddle method, 50 rpm) using a 0.1 w/v % deaerated sodium lauryl sulfate solution (900 mL, 37° C.). The tablets (133.00 mg/tablet; containing 5 mg of bulk drug) produced in Example 1 were put into the test solution as they were. For referential control, the bulk drug consisting crystal was put into the test solution as it was. The temperature was adjusted to 37±0.1° C.

[2] = Stability test under heating condition at 80° C. (HPLC impurities, powder X-ray diffraction)
Description: Each of the powder formulations obtained in Example 3 was tested under heating condition at 80° C. The purity was determined by high performance liquid chromatography (measured wave length; 242 nm). The state of crystallization was estimated by powder X-ray diffraction.

[3] = Stability test under humid condition at 40° C.; conditions: Immediately after Formulation
Description: Each of the powder formulations obtained in Example 3 was tested under heating condition at 40° C. under humid condition.

[4] = 80° C., Open Condition, After 3 days

CCOC(=O)C(COC(=O)Cc1ccc(NC(=O)c2ccccc2-c2ccc(C(F)(F)F)cc2)c(C(=O)N(C)C)c1)(C(=O)OCC)c1ccccc1 [MTP Inhibiting Compound, diethyl 2-(2-{3-dimethylcarbamoyl-4-[(4′-trifluoromethyl-biphenyl-2-carbonyl)-amino]-phenyl}-acetoxymethyl)-2-phenyl-malonate]
dissolution [1]: did not dissolve | Impurities Max (%) [2, 4]: 0.08% | Impurities Total (%) [2, 4]: 0.24% | Impurities Max (%) ([2]; Immediately after Formulation): 0.28% | Impurities Total (%) ([2]; Immediately after Formulation): 0.40% | Impurities Max (%) [3]: 0.11% | Impurities Total (%) [3]: 0.40%
